Series [1] can be described thus: Solid form characterisation of 5MeODMT benzoate lots (XRPD, DSC, TGA, 1H NMR).
Series [2] in a line: Dynamic Vapour Sorption (DVS). The format is physicochemical. The procedure:
A modified DVS isotherm of lot 20/45/006-FP (the same crystalline version) was undertaken to examine material behaviour from 60% RH and above. […] This is to obtain in-depth profiling of the material towards humidity at these elevated levels.
Temperature and humidity are important factors in the processing and storage of pharmaceuticals. DVS provides a versatile and sensitive technique for evaluating the stability of pharmaceutical formulations.
The solution was clarified into a 500 ml round bottom flask, the round bottom flask was rotated in an acetone/dry ice bath to freeze the solution in a thin layer around the flask. The ice was sublimed in vacuo at ambient temperature affording a fluffy white solid. The solid was removed from the round bottom flask and transferred to the DVS instrument. During this transfer, the solid collapsed to a sticky gum.
The sample was examined by DVS from 40% RH and cycled between 0% RH and 90% RH twice.
XRPD was collected on a portion of the sample post-lyophoilisation and post-DVS examination.

A short description of series [3]: Generation of amorphous 5MeODMT benzoate and conversion on standing (XRPD, DSC). The format is physicochemical. The note with it: on standing / all conditions studied. How it is done: The flask was transferred to a vacuum and equilibrated to ambient temperature affording a fluffy white solid, 21-01-051 C.
The solid transformed into gum over ca. 1 hour. The sample was analysed immediately and after 20 hours held in a sealed container.

The structures appear in SMILES notation.

As to `COc1ccc2[nH]cc(CCN(C)C)c2c1.O=C(O)c1ccccc1` [5MeODMT benzoate 21-01-064 D], in series [1] (predominantly Pattern E lots), the Crystalline character result was “Pattern E”.

As to `COc1ccc2[nH]cc(CCN(C)C)c2c1.O=C(O)c1ccccc1` [5MeODMT benzoate 21-01-064 E], in series [1] (predominantly Pattern D lots), the Crystalline character result is given as “Pattern D”. Take `COc1ccc2[nH]cc(CCN(C)C)c2c1.O=C(O)c1ccccc1` [Amorphous 5MeODMT benzoate]: in series [2] (amorphous input, after DVS at 90% RH), the “Solid form after DVS examination (XRPD)” value is given as “concordant with Pattern A”. Besides, in series [2] (amorphous lot 21-01-078, first desorption cycle), the Initial weight reduction entry is “ca. 1.4%”. Besides, the Weight increase in series [2] (amorphous lot 21-01-078, second sorption, between 50% RH and 90% RH) is listed as 0.2%. Also, in series [2] (amorphous, DVS examination), the Weight loss result is “ca. 2%”. Besides, the “Stability of the amorphous form” value in series [3] was “unstable and undergoes transformation to Pattern A form under all conditions studied”; in series [3] (listed as amorphous 5MeODMT benzoate) it was “will convert to Pattern A form material on standing”. With `COc1ccc2[nH]cc(CCN(C)C)c2c1.O=C(O)c1ccccc1` [5MeODMT benzoate 21-01-064 F], the Crystalline character entry in series [1] (predominantly Pattern D lots) is on record as “Pattern D”. Take `COc1ccc2[nH]cc(CCN(C)C)c2c1.O=C(O)c1ccccc1` [5MeODMT benzoate 21-01-064 E (air dried 4 hours)]: the Crystalline character entry in series [1] (predominantly Pattern D lots) was “Pattern D”. Turning to `COc1ccc2[nH]cc(CCN(C)C)c2c1.O=C(O)c1ccccc1` [5MeODMT benzoate 21-01-064 B], the Crystalline character result in series [1] (predominantly Pattern C lots) is recorded as “Pattern C”. As to `COc1ccc2[nH]cc(CCN(C)C)c2c1.O=C(O)c1ccccc1` [5MeODMT benzoate 21-01-064 A], in series [1] (predominantly Pattern C lots), the Crystalline character result is recorded as “Pattern C”.
